The results in this text go back to patent US10532066B2, “Surfactant lipids, compositions thereof, and uses thereof” (National Jewish Health, priority 2007, dated 2020).

Assay [1] relates to TNF-α stimulated macrophages. As to the kind of experiment: IkBα degradation in TNF-α stimulated macrophages. The format is cell-based. The following applies: TNF-α 10 ng/ml. The protocol:
Protein synthesis was measured by determining [^3H]-Leucine incorporation into trichloroacetic acid precipitable material in the presence and absence of 200 μg/ml POPG. No changes in protein synthesis occurred over a 6 hr period in POPG treated U937 cells compared to untreated cells in 3 independent experiments. […] In these studies, macrophages were treated with TNF-α (10 ng/ml) and the degradation of IkBα was measured. […] Collectively, these studies indicate that the actions of the anionic lipids upon LPS signaling are specific.

For the next assay, the target named is T1, TLR9 (Mus musculus, UniProt Q9EQU3).
T1 construct: endogenous in cells; host or cells: RAW 264.7
T1 sequence (Q9EQU3 26-1032): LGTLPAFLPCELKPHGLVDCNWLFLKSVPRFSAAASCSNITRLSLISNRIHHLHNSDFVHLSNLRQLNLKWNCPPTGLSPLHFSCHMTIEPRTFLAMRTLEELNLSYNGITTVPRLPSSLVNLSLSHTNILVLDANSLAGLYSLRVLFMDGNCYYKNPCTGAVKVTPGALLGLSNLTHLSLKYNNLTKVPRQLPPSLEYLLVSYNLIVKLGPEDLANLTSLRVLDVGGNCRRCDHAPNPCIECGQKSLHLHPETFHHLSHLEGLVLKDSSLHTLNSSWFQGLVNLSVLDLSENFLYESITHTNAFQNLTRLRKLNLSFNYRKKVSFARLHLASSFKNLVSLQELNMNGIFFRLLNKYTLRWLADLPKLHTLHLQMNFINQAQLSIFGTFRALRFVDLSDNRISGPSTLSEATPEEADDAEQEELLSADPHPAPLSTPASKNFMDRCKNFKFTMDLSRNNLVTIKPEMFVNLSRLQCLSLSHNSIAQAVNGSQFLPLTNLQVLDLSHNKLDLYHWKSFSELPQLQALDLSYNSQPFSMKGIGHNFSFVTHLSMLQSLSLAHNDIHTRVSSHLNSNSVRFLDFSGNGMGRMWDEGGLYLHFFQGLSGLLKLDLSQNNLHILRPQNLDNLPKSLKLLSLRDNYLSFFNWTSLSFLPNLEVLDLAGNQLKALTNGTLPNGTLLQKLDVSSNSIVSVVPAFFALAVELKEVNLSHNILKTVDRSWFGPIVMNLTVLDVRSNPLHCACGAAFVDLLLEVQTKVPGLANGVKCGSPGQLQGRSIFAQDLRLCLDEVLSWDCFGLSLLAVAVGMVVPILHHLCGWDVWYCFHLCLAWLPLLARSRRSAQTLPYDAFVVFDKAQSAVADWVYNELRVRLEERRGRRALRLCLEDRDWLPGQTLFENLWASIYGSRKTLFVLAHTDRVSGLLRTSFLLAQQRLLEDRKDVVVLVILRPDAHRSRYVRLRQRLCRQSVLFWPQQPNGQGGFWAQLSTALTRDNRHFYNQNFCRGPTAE
Put plainly: TLR agonist TNFα production in RAW 264.7 cells, TLR9. The class given is cell-based. As to conditions: CpG rich DNA, 24 h. The protocol:
In this experiment, multiple TLRs were stimulated with defined TLR agonists for 24 h and the TNFα production was measured. In each case, the maximal stimulation by agonist is set at 100% and the antagonism by POPG is expressed as the relative % response. The Controls consist of no treatment, or treatment with POPG in the absence of agonist as indicated. The agonists for the TLRs consist of Pam3Cys for TLR1/2, Mycoplasma pneumoniae membranes as an agonist for TLR2, mycoplasma derived MALP2 as an agonist for TLR 2/6, double stranded RNA (poly IC) for TLR3, Gram-negative lipopolysaccharide for TLR4, and CpG rich DNA as an agonist for TLR9. The TLR4 panel also contains the antagonist polymyxin B (PB) for comparison with POPG.

In another assay the target is T2, Toll-like receptor 3 (Homo sapiens, UniProt O15455).
T2 construct: endogenous in cells; host or cells: primary normal human bronchial epithelial (NHBE) cells
As to the kind of experiment: polyIC IL-8 production in NHBE cells. The following applies: 24 hr. The class given is cell-based. The protocol:
In this experiment, NHBE cells were stimulated with double stranded RNA (polyIC) and the IL-8 production was measured after an interval of 24 hr. The maximal stimulation by agonist is set at 100% and the antagonism by POPG is expressed as the relative % response. The Controls consist of no treatment, or treatment with POPG, in the absence of agonist as indicated.

In another assay the test system is TLR7. Put plainly: TLR agonist IL-8 production in primary human neutrophils, TLR7. The format is cell-based. The following applies: polyU, 5-24 h. On the procedure: (§1) In this experiment, multiple TLRs were stimulated with defined TLR agonists for 5-24 h as indicated, and the IL-8 production was measured. In each case the maximal stimulation by agonist is set at 100% and the antagonism by POPG is expressed as the relative % response. The Controls consist of no treatment, or treatment with POPG, in the absence of agonist as indicated. The agonists for the TLRs consist of Pam3Cys for TLR1/2, double stranded RNA (poly IC) for TLR3, Gram-negative lipopolysaccharide (LPS) for TLR4, and single stranded RNA (polyU) for TLR7/8.

The subject of assay [2] is Respiratory Syncytial Virus (RSV). As to the kind of experiment: RSV-induced cytokine production in BEAS2B cells. The format is cell-based.
Assay [3] deals with RSV. As to the kind of experiment: RSV binding to solid phase phospholipids (ELISA). The arrangement: species or system Respiratory Syncytial Virus (RSV). The following applies: 10 ug lipid per well, varying RSV. On the procedure:
Solid phase phospholipids (10 ug) were adsorbed to microtiter wells by evaporation of ethanol solvent. The wells were blocked with albumin and exposed to varying concentrations of RSV as shown in the left panel of FIG. 37. The wells were washed 3 times with phosphate buffered saline and the bound virus was detected by ELISA using polyclonal rabbit anti-RSV.

In assay [4] the test system is RSV. As to the kind of experiment: RSV infection of mice. The following applies: 10^7 RSV with 200 ug/ml POPG, three days. The class given is in vivo. On the procedure: Groups of 8 mice were inoculated with 10^7 RSV in either the absence (RSV), or presence of 200 ug/ml POPG (RSV+POPG). Control experiments consisted of UV inactivated RSV (URV), or saline treatment (CON), or POPG treatment without virus (POPG). Three days after the inoculations, the animals were killed and the lungs harvested and processed for viral content by quantitative plaque assay (left panel of FIG. 41), and histopathology (right panel of FIG. 41)

In a further assay the target is T3, TLR3 (Homo sapiens, UniProt O15455).
T3 sequence (O15455 24-904): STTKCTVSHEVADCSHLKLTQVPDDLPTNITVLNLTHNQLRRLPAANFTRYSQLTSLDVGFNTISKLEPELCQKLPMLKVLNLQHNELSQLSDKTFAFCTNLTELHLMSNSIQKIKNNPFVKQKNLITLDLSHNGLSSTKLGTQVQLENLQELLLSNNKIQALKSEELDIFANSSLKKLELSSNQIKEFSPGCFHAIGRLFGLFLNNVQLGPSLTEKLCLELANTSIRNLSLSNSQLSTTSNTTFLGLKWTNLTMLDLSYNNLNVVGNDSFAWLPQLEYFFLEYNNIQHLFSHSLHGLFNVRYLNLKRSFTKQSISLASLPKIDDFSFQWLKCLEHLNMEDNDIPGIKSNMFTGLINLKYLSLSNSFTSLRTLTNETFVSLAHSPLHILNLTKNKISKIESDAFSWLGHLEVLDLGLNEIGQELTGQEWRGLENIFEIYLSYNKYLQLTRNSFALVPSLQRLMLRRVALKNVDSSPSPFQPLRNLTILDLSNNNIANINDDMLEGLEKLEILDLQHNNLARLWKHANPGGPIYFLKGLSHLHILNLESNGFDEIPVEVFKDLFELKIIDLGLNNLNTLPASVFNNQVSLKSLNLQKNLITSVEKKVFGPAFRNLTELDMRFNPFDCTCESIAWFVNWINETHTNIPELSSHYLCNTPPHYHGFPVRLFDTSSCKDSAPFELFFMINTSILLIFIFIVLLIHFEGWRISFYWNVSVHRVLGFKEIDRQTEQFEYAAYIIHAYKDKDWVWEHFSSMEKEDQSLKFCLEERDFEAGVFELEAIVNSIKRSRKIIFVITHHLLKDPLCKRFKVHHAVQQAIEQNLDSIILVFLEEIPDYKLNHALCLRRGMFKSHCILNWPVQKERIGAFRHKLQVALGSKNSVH
As to the kind of experiment: TLR agonist IL-8 production in primary human neutrophils, TLR3. The format is cell-based. The arrangement: endogenous in cells; host or cells: primary human neutrophils. The following applies: poly IC, 5-24 h. On the procedure:
as §1

The next assay has as its system U937 macrophages. As to the kind of experiment: TNFα in U937 macrophages stimulated with smooth LPS, with SP-A and PtdGro. The class given is cell-based. The following applies: 100 ng/ml smooth LPS, 6 hours, SP-A 10 μg/ml, lipid 20 μg/ml. On the procedure: U937 macrophages were stimulated with 100 ng/ml smooth LPS for 6 hours. The culture medium was harvested and assayed for the presence of TNFα by ELISA. Control cultures received no additions. SP-A was added as indicated at 10 μg/ml. Saturated-(16:0/16:0)-PtdGro was added at 20 μg/ml. Unsaturated-(18:1/18:1)-PtdGro was added at 20 μg/ml.

The mark [5] stands for this setting: RSV multiplicity 3, 48 h, lipid 200 ug/ml.

As for `CCCCCCCC/C=C\CCCCCCCC(=O)O[C@H](COC(=O)CCCCCCCCCCCCCCC)COP(=O)(O)OCC(O)CO` (stereo partly drawn) [POPG, palmitoyl-oleoyl-phosphatidylglycerol], in [1], the “IkBα degradation after TNF-α stimulation” value is listed as “failed to alter”. For the same compound, at TLR9, the “activity of TLR9 (TNFα production)” value is recorded as “not”. Moreover, the “activity of TLR3 (IL-8 production)” value on Toll-like receptor 3 is on record as “inhibits”. In the assay with TLR7, the “activity of TLR7 (IL-8 production)” value is on record as “inhibits”. Besides, in [2] (RSV multiplicity 0.5, 48 hours), the “IL-8 production, varying concentrations of POPG” value is “inhibits IL-8 production from epithelial cells in a concentration-dependent manner”. Further, the “inflammatory cytokine production (IL-6, IL-8)” value in assay [2] (RSV multiplicity 0.5-1, 48 h, 200 ug/ml) is “suppresses”. In [2] (setting [5]), the IL-6 production entry is listed as “inhibits” and the IL-8 production result was “inhibits”. For the same compound, in the assay on RSV [3], the “binding of RSV to solid phase phospholipid” value is “binds RSV with high affinity and specificity”. Further, the “RSV infection in vivo (lung viral content, histopathology)” value with RSV [4] is on record as “suppresses”. Besides, on TLR3, the “activity of TLR3 (IL-8 production)” value is “inhibits”.

As to `CCCCCCCCCCCCCCCC(=O)OCC(COP(=O)(O)OCC(O)CO)OC(=O)CCCCCCCCCCCCCCC` (stereo not drawn) [DPPG, dipalmitoyl-phosphatidylglycerol, reference compound], the “blocking of the anti-inflammatory effects of SP-A (TNFα)” value with U937 macrophages was “does not block”.
